US20230212571A1, “COMPOSITIONS AND METHODS FOR DELIVERING POLYNUCLEOTIDES” (NeOnc Technologies, Inc., priority 2020, published 2023)

Columns and labels:
[1] = tested on: BEC; experiment: ELISA of control BEC supernatants; assay type: cell-based, human; details: control BEC supernatants, normoxia
Description: (§1) Human surgical specimens were obtained following written informed consent from patients in accordance with Declaration of Helsinki guidelines and the Institutional Review Board (HS-04B053), at Keck School of Medicine, USC. AVM-BECs were isolated from brain tissues of patients who underwent microsurgical AVM resection. Control BECs were isolated from the structurally normal […] of patients who underwent temporal lobectomy for intractable epilepsy. Endothelial cell (EC) isolation and culture were described^5,9. (Stapleton C J, Armstrong D L, Zidovetzki R, Liu C Y, Giannotta S L, Hofman F M. Thrombospondin-1 modulates the angiogenic phenotype of human cerebral arteriovenous malformation endothelial cells. Neurosurgery. 2011; 68(5):1342-1353) (Ferreira R, Santos T, Amar A, et al. Argonaute-2 promotes miR-18a entry in human brain endothelial cells. J Am Heart Assoc. 2014; 3(3):e000968) ECs were only used between passages 3-5. Experiments were performed under shear flow conditions (12 dyn/cm^2) to reproduce arterial flow^6. (Ferreira R, Santos T, Amar A, et al. MicroRNA-18a improves human cerebral arteriovenous malformation endothelial cell function. Stroke. 2014; 45(1):293-297). For hypoxic experiments, cells were cultured in a Galaxy 48R (Eppendorf) incubator at 3% O2. MicroRNAs were co-administered with Ago-2 to increase the cellular uptake of miR-18a^9 (Ferreira R, Santos T, Amar A, et al. Argonaute-2 promotes miR-18a entry in human brain endothelial cells. J Am Heart Assoc. 2014; 3(3):e000968) (FIG. 9). Methods regarding cell treatments and transfections were included in Data.
(§2) Small interfering RNA transfection was performed as previously described^5. Briefly, ECs were transfected with small interfering RNA (siRNA) against ID1 or PAI-1 (Thermo Fisher Scientific), or small interfering control (Santa Cruz Biotechnology) constructs using Lipofectamine RNAiMax (Thermo Fisher Scientific) per the manufacturer's instructions. Knockdown of ID1 or PAI-1 was confirmed by quantitative real-time polymerase chain reaction as described^6 (FIG. 19). The sequences of the forward and reverse primers for ID1 and PAI-1 were included in Table 2.
(§3) Plasmid constructs pcDNA3-ALK2^WT (Addgene #80870) and pcDNA3-ALK2^Q207D (Addgene #80871) were a gift from Aristidis Moustakas^7. (Meyer B, Schaller C, Frenkel C, Ebeling B, Schramm J. Distributions of local oxygen saturation and its response to changes of mean arterial blood pressure in the cerebral cortex adjacent to arteriovenous malformations. Stroke. 1999; 30(12):2623-2630) 10^4 AVM-BEC were seeded 24 h before transfection. The plasmid vector containing the 3′ untranslated region (3′UTR) of human BMP4, pRP [Exp]-Puro-CMV>Luciferase:{hBMP4_3′UTR}, was constructed and packaged by VectorBuilder. The vector ID is VB200205-1078zdv, which can be used to retrieve detailed information about the vector on vectorbuilder.com. Transient transfections were performed with Lipofectamine RNAiMax (Thermo Fisher Scientific) according to the manufacturer's instructions. After 4 h, medium was replaced by fresh medium containing microRNA.
(§4) MiR-18a (hsa-miR-18a-5p, 40 nM, Dharmacon) or a scramble microRNA (40 nM, Dharmacon) in nuclease-free water was added with argonaute 2 (Ago-2, 0.4 nM, Abcam) as the microRNA carrier and stabilizer^9. (Ferreira R, Santos T, Amar A, et al. Argonaute-2 promotes miR-18a entry in human brain endothelial cells. J Am Heart Assoc. 2014; 3(3):e000968). No transfection reagent was used with miR-18a or scramble microRNA treatments. Recombinant human TSP-1 (R&D Systems) stock solution was prepared in PBS and further diluted in culture medium to be used at a final concentration of 1000 ng/mL. Cells were treated during 24 h for mRNA and 48 h for protein expression studies. NEO100 (NeOnc Technologies) stock was prepared in DMSO and used immediately or stored at −20° C. […]

[2] = tested on: AVM-BEC; experiment: ELISA of AVM-BEC supernatants; assay type: cell-based, human
Description: as §1, §2, §3, §4

[3] = tested on: AVM-BEC; details: previous studies (Stapleton 2011); cited from earlier work

## TSP-1: Recombinant human TSP-1 (R&D Systems), used at 1000 ng/mL
[1]
  levels of secreted PAI-1: without affecting control BEC
  levels of secreted VEGF: without affecting control BEC
[2]; AVM-BEC supernatants, normoxia, vs scramble microRNA
  levels of secreted PAI-1: decreased
[2]; AVM-BEC supernatants, normoxia, decrease only reached significance with miR-18a
  levels of secreted VEGF: decreased
[2]; AVM-BEC, hypoxia 3% oxygen
  PAI-1 secretion: neither treatment with TSP-1 (P=0.3917), nor ID1 knock-down (P=0.1701) were able to significantly decrease the levels of PAI-1
[3]
  migration rate of AVM-BEC: decreases their migration rate
